Measured values as given in ChEMBL document CHEMBL1201862, “PubChem BioAssay data set” (2004).
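Results reflect a 48-hour exposure of cells in 96-well plates to compound at five concentrations. GI50: concentration for 50% inhibition of growth.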 Activity calls are given as the source filed them. No stated cut-off is given here; in the data, active = GI50 up to about 1.1 µM and inactive = higher.

What was measured:
Test in all cases: growth of human tumour cells (NCI), 48 h
A498 = tested on: A498
CCRF-CEM = tested on: CCRF-CEM
COLO 205 = tested on: COLO 205
DLD-1 = tested on: DLD-1
EKVX = tested on: EKVX
NCI-H23 = tested on: NCI-H23
OVCAR-4 = tested on: OVCAR-4
OVCAR-5 = tested on: OVCAR-5
OVCAR-8 = tested on: OVCAR-8
RPMI-8226 = tested on: RPMI-8226
SF-539 = tested on: SF-539
SW-620 = tested on: SW-620
TK-10 = tested on: TK-10
UACC-257 = tested on: UACC-257
DU-145 = tested on: DU-145
MCF7 = tested on: MCF7
MDA-MB-435 = tested on: MDA-MB-435
NCI/ADR-RES = tested on: NCI/ADR-RES
SK-MEL-28 = tested on: SK-MEL-28
SNB-75 = tested on: SNB-75

Row | SMILES | GI50 (A498) | GI50 (CCRF-CEM) | GI50 (COLO 205) | GI50 (DLD-1) | GI50 (EKVX) | GI50 (NCI-H23) | GI50 (OVCAR-4) | GI50 (OVCAR-5) | GI50 (OVCAR-8) | GI50 (RPMI-8226) | GI50 (SF-539) | GI50 (SW-620) | GI50 (TK-10) | GI50 (UACC-257) | GI50 (DU-145) | GI50 (MCF7) | GI50 (MDA-MB-435) | GI50 (NCI/ADR-RES) | GI50 (SK-MEL-28) | GI50 (SNB-75)
1 | COc1cc2nc(-c3cccc(N(C)C)c3)cc(O)c2cc1OC | 6.03 µM (inactive) | 3.87 µM (inactive) | 3.85 µM (inactive) | 4.5 µM (inactive) | 16.5 µM (inactive) | 3.54 µM (inactive) | > 100 µM (inactive) | 5.18 µM (inactive) | 6.03 µM (inactive) | 3.65 µM (inactive) | 2.66 µM (inactive) | 4.09 µM (inactive) | > 100 µM (inactive) | 5.28 µM (inactive) |  |  |  |  |  | 
2 | CCOc1cc2c(OCc3ccccc3)cc3c4cc(OC)c(OC)cc4c[n+](C)c3c2cc1OC | 22.2 µM (inactive) | 0.494 µM (active) | 0.259 µM (active) |  | 17.8 µM (inactive) | 2.73 µM (inactive) | 2.04 µM (inactive) | 7.13 µM (inactive) | 2.19 µM (inactive) | 2.06 µM (inactive) | 1.3 µM (inactive) | 1.47 µM (inactive) | 10.3 µM (inactive) | 1.62 µM (inactive) | 3.62 µM (inactive) | 0.671 µM (active) | 0.789 µM (active) | > 100 µM (inactive) | 1.36 µM (inactive) | 0.442 µM (active)
3 | Nc1ccc2c(c1)C(=O)N(OS(=O)(=O)c1ccccc1)C2=O | > 100 µM (inactive) | 76.6 µM (inactive) | 56.4 µM (inactive) | 52.4 µM (inactive) | > 100 µM (inactive) | > 100 µM (inactive) | > 100 µM (inactive) | > 100 µM (inactive) | 56.9 µM (inactive) |  | > 100 µM (inactive) | 49.8 µM (inactive) | > 100 µM (inactive) | > 100 µM (inactive) |  |  |  |  | > 100 µM (inactive) | > 100 µM (inactive)
4 | CC(=O)O[C@H]1C(=O)[C@@]2(C)[C@H]([C@H](OC(=O)c3cccc([N+](=O)[O-])c3)[C@]3(O)C[C@H](OC(=O)[C@H](O)[C@@H](NC(=O)c4ccccc4)c4ccccc4)C(C)=C1C3(C)C)[C@]1(OC(C)=O)CO[C@@H]1C[C@@H]2O | 0.005 µM (active) | 0.00479 µM (active) | 0.00474 µM (active) |  | 2.78 µM (inactive) | 0.00912 µM (active) | 3.58 µM (inactive) | 0.0105 µM (active) | 0.00785 µM (active) | 0.00341 µM (active) | < 0.0025 µM (active) | 0.00706 µM (active) | 0.0495 µM (active) | < 0.0025 µM (active) | 0.0177 µM (active) | 0.00423 µM (active) | 0.00336 µM (active) | 5.52 µM (inactive) | 0.0157 µM (active) | 0.00759 µM (active)
